Where two headings read alike, the source gives them in different places.
Experiments:
Assay type in all cases: in vivo, Sprague-Dawley male rats
[1] = tested on: chromodacryorhea induced by carbacholine; assay: Anticholinergic activity in rats (antagonism against chromodacryorhea induced by carbacholine); conditions: for ED50: Rattus norvegicus, po, read-out: anticholinergic ED50 p.o. (B); for B/A (ratio of ED50's for oral anti-cholinergic and anti-ulcer activities): B = anticholinergic ED50, A = antiulcer ED50
Excerpt: 3. Anticholinergic activity in rats. […] J. Pharm. […] From 3 to 5 Sprague-Dawley male rats, 250 g body weight, have been employed for each group. […] The compound reference numbers are explained in the Examples below.

[2] = tested on: gastric secretion; assay: Inhibition of gastric secretion in rats (pylorus ligature technique); conditions: Rattus norvegicus, sc, s.c. at the time of pylorus ligature, 4 h, read-out: Antisecretory ED50 s.c.
Method: 2. […] Gastric antisecretory activity was evaluated in rats by the pylorus ligature technique.
Six Sprague-Dawley male rats (110-130 g) were used for each group. Twenty-four hours before the test, the rats were deprived of food but their water supply was maintained.
On the day of the operation, the pylorus was ligated under light ether anaesthesia. Four hours after the ligature, the rats were sacrificed, the stomach secretion was collected and centrifuged at 3500 r.p.m. for 10 minutes, and the volume, less sediment, was determined. The amount of the free hydrochloric acid in the gastric juice was determined by titration against 0.01N sodium hydroxide, using Topfer's Indicator.
Each compound was injected subcutaneously at the time of ligature.

[3] = tested on: restraint ulcer; assay: Inhibition of restraint ulcer in rats; conditions: Rattus norvegicus
Method: 1. […] Six Sprague-Dawley male rats (100-200 g) fasted for 24 hours were used for each group.
A square flexible small-mesh wire netting was used for immobilization. After 4 hours immobilization the rats were sacrificed, their stomachs were removed, and lesions counted under a dissecting microscope.
The compounds were administered subcutaneously (s.c.) immediately before the immobilization or orally (os) one hour before.

[4] = rats, p.o., carbacholine-induced chromodacryorhea
[5] = po, p.o. one hour before 4 h immobilization, read-out: Antiulcer ED50 p.o (A)
[6] = sc, s.c. immediately before 4 h immobilization, read-out: Antiulcer ED50 s.c.

Structure (SMILES) | ED50 [1, 4] [mg/kg] | B/A (ratio of ED50's for oral anti-cholinergic and anti-ulcer activities) ([1]; rats, p.o.) | ED50 [2] [mg/kg] | ED50 [3, 5] [mg/kg] | ED50 [3, 6] [mg/kg] | B/A (ratio of ED50's for oral anti-cholinergic and anti-ulcer activities) ([1]; rats, p.o., listed as methiamide) | ED50 [1] [mg/kg] | B/A (ratio of ED50's for oral anti-cholinergic and anti-ulcer activities) ([1]; rats, p.o., listed as atropine)
CC(C)NC(=S)N1CCc2[nH]cnc2C1 [compound 1087, 5-(N-isopropyl-thiocarbamoyl)-4,5,6,7-tetrahydro-imidazo-[4,5-c]-pyridine] | 2 | 0.6 | 6 | 3.1 | 0.9 |  |  | 
CCC1c2nc[nH]c2CCN1C(=S)NC(C)C (stereo not shown) [compound 1184, 4-Ethyl-5-(N-isopropyl-thiocarbamoyl)-4,5,6,7-tetrahydro-imidazo-[4,5-c]-pyridine] | 10 |  | 22 | 11 | 0.64 |  |  | 
CCC1c2nc[nH]c2CCN1C(=O)NC(C)C (stereo not shown) [compound 1316, 4-Ethyl-5-(N-isopropyl-carbamoyl)-4,5,6,7-tetrahydro-imidazo-[4,5-c]-pyridine] | 70 | 10 | 50 | 6.6 | 0.75 |  |  | 
O=C(NC1CCCC1)N1CCc2[nH]cnc2C1 [compound 1366, 5-(N-cyclopentyl-carbamoyl)-4,5,6,7-tetrahydro-imidazo-[4,5-c]-pyridine] | 10 | 2.6 | 17 | 3.8 | 0.75 |  |  | 
CNC(=S)NCCSCc1nc[nH]c1C [Methiamide, reference compound] | 85 | 1.3 | 60 | 64 | 14 | about 2 |  | 
CC(C)NC(=S)N1CCc2[nH]cnc2C1C1CCCCC1 (stereo not shown) [compound 1367, 4-Cyclohexyl-5-(N-isopropyl-thiocarbamoyl)-4,5,6,7-tetrahydro-imidazo-[4,5-c]-pyridine] | > 100 | > 18 | > 50 | 6 | 3.3 |  |  | 
O=C(NC1CC1)N1CCc2[nH]cnc2C1 [compound 1365, 5-(N-cyclopropyl-carbamoyl)-4,5,6,7-tetrahydro-imidazo-[4,5-c]-pyridine] | 21 | 5.5 | 50 | 3.8 | 2 |  |  | 
N=C(NC(=O)c1ccccc1)N1CCc2[nH]cnc2C1 [compound 1450, 5-(N-benzoylguanyl)-4,5,6,7-tetrahydroimidazo-[4,5-c]-pyridine] |  |  | > 50 | 34 | > 10 |  |  | 
CC(C)NC(=O)N1CCc2[nH]cnc2C1 [compound 1348, 5-(N-isopropyl-carbamoyl)-4,5,6,7-tetrahydro-imidazo-[4,5-c]-pyridine] | 7.8 | 14 | 18 | 0.55 | 0.1 |  |  | 
S=C(Nc1ccccc1)N1CCc2[nH]cnc2C1 [compound 1116, 5-(N-Phenyl-thiocarbamoyl)-4,5,6,7-tetrahydro-imidazo-[4,5-c]-pyridine] |  |  | 23 | > 34 | > 10 |  |  | 
CCNC(=S)N1CCc2[nH]cnc2C1 [compound 1293, 5-(N-ethyl-thiocarbamoyl)-4,5,6,7-tetrahydro-imidazo-[4,5-c]-pyridine] |  |  | 8 | 25 | 6 |  |  | 
CCC1c2c(ncn2C)CCN1C(=O)NC(C)C (stereo not shown) [compound 1404, 3-Methyl-4-ethyl-5-(N-isopropyl-carbamoyl)-4,5,6,7-tetrahydroimidazo-[4,5-c]-pyridine] |  |  | > 50 | 34 | 10 |  |  | 
CC(C)NC(=S)N1CCc2ncn(C)c2C1 [compound 1286] | > 50 | > 5.8 | 34 | 8.5 | 0.85 |  |  | 
CCCNC(=S)N1CCc2[nH]cnc2C1 [compound 1361, 5-(N-n-propyl-thiocarbamoyl)-4,5,6,7-tetrahydro-imidazo-[4,5-c]-pyridine] |  |  | 50 | 25 | 10 |  |  | 
CCC1c2c(ncn2CC)CCN1C(=S)NC(C)C (stereo not shown) [compound 1399, 3,4-Diethyl-5-(N-isopropyl-thiocarbamoyl)-4,5,6,7-tetrahydroimidazo-[4,5-c]-pyridine] | > 100 | > 25 |  | 4 | 3.5 |  |  | 
CNC(=S)N1CCc2[nH]cnc2C1 [compound 1068, 5-(N-methyl-thiocarbamoyl)-4,5,6,7-tetrahydroimidazo-[4,5-c]-pyridine] | > 100 | > 40 | > 50 | 2.4 | 0.6 |  |  | 
S=C(NC1CCCC1)N1CCc2[nH]cnc2C1 [compound 1360, 5-(N-cyclopentyl-thiocarbamoyl)-b 4,5,6,7-tetrahydro-imidazo-[4,5-c]-pyridine] | 76 | 13 | 19 | 5.6 | > 10 |  |  | 
CN1[C@@H]2CC[C@H]1C[C@@H](OC(=O)C(CO)c1ccccc1)C2 (stereo partly shown) [Atropine, reference compound] |  | 2 | 0.1 | 0.4 | 0.02 |  | 0.8 | about 2
CNC(=O)N1CCc2[nH]cnc2C1 [compound 1350, 5-(N-methyl-carbamoyl)-4,5,6,7-tetrahydro-imidazo-[4,5-c]-pyridine] | > 100 | > 18 | > 50 | 5.6 | 6.5 |  |  | 
CCC1c2c(ncn2CC)CCN1C(=O)NC(C)C (stereo not shown) [compound 1400, 3,4-Diethyl-5-(N-isopropyl-carbamoyl)-4,5,6,7-tetrahydro-imidazo-[4,5-c]-pyridine] | > 100 | > 5.5 | 50 | 18 | 10 |  |  | 
S=C(NC1CC1)N1CCc2[nH]cnc2C1 [compound 1359, 5-(N-cyclopropyl-thiocarbamoyl)-4,5,6,7-tetrahydro-imidazo-[4,5-c]-pyridine] | 45.5 | 25 | 40 | 1.8 | 5 |  |  | 
CC(C)NC(=O)N1CCc2[nH]cnc2C1c1ccncc1 (stereo not shown) [compound 1467, 4-(4-pyridyl)-5-(N-isopropyl-carbamoyl)-4,5,6,7-tetrahydroimidazo-[4,5-c]-pyridine] |  |  | > 50 | 50 | 7 |  |  | 
CCC1c2nc[nH]c2CCN1C(=N)NC(=O)c1ccccc1 (stereo not shown) [compound 1448, 4-Ethyl-5-(N-benzoylguanyl)-4,5,6,7-tetrahydroimidazo-[4,5-c]-pyridine] | > 100 | > 4 | > 50 | 22 | > 10 |  |  | 
